Assay results taken from ChEMBL document CHEMBL3774304, “Novel morpholin-3-one fused quinazoline derivatives as EGFR tyrosine kinase inhibitors” (Bioorg Med Chem Lett, 2016).

Columns and labels:
[1] = target: T1, Epidermal growth factor receptor (Homo sapiens, UniProt P00533)
Target sequence in this assay (P00533 whole entry): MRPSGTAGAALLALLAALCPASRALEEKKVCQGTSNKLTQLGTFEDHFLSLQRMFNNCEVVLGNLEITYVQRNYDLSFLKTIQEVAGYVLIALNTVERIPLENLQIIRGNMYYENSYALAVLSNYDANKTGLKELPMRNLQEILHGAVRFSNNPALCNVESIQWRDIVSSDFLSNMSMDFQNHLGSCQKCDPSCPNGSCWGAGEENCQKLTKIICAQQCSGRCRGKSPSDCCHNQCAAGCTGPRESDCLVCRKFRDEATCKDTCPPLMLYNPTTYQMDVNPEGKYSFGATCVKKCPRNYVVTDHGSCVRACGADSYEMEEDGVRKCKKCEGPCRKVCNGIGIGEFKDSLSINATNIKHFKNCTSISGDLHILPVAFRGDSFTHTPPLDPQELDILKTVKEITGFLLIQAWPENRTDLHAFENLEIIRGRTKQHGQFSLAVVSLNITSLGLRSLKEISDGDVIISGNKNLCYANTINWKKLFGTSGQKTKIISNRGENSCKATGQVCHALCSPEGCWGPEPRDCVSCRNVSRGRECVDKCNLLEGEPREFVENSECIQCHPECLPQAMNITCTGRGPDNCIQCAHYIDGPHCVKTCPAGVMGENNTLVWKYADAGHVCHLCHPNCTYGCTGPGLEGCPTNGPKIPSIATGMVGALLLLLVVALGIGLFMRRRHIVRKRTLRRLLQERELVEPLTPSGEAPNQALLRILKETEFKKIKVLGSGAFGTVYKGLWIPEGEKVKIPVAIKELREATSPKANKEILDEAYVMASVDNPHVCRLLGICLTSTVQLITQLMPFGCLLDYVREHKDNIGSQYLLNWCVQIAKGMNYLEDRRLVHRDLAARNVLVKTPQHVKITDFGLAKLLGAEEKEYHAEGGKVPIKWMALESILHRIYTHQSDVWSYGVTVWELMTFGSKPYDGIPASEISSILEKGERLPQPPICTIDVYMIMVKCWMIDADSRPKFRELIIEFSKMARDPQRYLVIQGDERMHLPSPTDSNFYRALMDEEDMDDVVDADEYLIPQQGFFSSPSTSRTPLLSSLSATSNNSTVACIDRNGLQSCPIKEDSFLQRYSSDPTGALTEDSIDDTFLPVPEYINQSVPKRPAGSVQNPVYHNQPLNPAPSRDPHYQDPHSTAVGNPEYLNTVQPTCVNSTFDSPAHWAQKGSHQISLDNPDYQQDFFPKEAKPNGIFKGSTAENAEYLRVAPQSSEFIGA
Description: Inhibition of wildtype EGFR (unknown origin) preincubated for 30 mins followed by addition of 2x ATP-substrate mixture measured after 1 hr by Kinase Glo luminescent kinase assay

A549 = experiment: cells; assay type: functional, cell-based; conditions: Homo sapiens, A549, 48 h
Description: Antiproliferative activity against human A549 cells assessed as viable cells after 48 hrs by CCK8 assay

NCI-H358 = experiment: cells; assay type: functional, cell-based; conditions: Homo sapiens, NCI-H358, 48 h
Description: Antiproliferative activity against human NCI-H358 cells assessed as viable cells after 48 hrs by CCK8 assay

[2] = target: T1, Epidermal growth factor receptor; assay type: protein assay
Target sequence in this assay (P00533 25-1210 limits assumed, change not shown): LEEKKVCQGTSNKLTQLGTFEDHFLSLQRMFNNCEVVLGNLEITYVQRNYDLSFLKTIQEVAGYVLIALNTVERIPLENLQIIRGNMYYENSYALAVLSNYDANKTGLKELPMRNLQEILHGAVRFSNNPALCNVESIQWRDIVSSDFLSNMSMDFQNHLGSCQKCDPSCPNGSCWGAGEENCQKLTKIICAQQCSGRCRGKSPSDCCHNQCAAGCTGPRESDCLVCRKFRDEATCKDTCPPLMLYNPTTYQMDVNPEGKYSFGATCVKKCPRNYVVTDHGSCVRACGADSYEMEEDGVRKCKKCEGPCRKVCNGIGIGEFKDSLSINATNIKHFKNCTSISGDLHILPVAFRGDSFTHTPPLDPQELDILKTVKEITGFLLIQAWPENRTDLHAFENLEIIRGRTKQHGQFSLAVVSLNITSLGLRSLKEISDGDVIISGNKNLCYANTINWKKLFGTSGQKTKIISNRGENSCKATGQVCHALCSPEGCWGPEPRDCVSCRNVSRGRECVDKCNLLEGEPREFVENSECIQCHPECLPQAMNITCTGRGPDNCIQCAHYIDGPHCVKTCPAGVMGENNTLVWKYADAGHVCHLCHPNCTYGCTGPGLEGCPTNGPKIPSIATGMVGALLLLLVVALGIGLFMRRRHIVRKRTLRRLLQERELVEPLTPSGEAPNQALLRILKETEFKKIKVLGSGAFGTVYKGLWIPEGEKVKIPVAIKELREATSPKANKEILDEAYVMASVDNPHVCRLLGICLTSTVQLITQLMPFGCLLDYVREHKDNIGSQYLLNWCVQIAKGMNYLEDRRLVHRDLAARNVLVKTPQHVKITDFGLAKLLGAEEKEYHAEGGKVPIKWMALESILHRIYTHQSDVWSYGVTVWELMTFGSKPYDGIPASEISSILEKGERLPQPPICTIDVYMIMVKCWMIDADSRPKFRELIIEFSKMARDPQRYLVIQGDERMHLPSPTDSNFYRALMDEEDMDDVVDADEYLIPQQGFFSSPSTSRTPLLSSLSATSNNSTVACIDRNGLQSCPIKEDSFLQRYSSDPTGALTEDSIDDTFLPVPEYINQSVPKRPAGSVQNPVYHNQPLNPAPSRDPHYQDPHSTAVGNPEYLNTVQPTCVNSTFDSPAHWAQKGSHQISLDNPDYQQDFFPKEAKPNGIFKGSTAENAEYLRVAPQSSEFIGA
Description: Inhibition of EGFR-T790M/L858 mutant (unknown origin) preincubated for 30 mins followed by addition of 2x ATP-substrate mixture measured after 1 hr by Kinase Glo luminescent kinase assay

SMILES	IC50 [1]	also measured
C#Cc1cccc(Nc2ncnc3cc4c(cc23)N(CCCN2CCCCC2)C(=O)CO4)c1	211 nM	–
COc1cccc(Nc2ncnc3cc4c(cc23)N(CCCN2CCOCC2)C(=O)CO4)c1	> 1000 nM	–
C#Cc1cccc(Nc2ncnc3cc4c(cc23)N(CCCN2CCOCC2)C(=O)CO4)c1	139 nM	IC50 (A549): 5580 nM; IC50 (NCI-H358): 13500 nM; IC50 [2]: 880 nM
O=C1COc2cc3ncnc(Nc4cccc(C(F)(F)F)c4)c3cc2N1CCCN1CCOCC1	829 nM	–
O=C1COc2cc3ncnc(Nc4ccc(F)c(Cl)c4)c3cc2N1CCCN1CCCCC1	138 nM	–
O=C1COc2cc3ncnc(Nc4cccc(Br)c4)c3cc2N1CCCN1CCCCC1	99 nM	–
COc1ccc(Nc2ncnc3cc4c(cc23)N(CCCN2CCOCC2)C(=O)CO4)cc1OC	> 1000 nM	–
O=C1COc2cc3ncnc(Nc4cccc(Cl)c4)c3cc2N1CCCN1CCCCC1	116 nM	–
Cc1cccc(Nc2ncnc3cc4c(cc23)N(CCCN2CCCCC2)C(=O)CO4)c1	456 nM	–

Further lines, with some results ahead:

IC50 [1]	SMILES	also measured
434 nM	O=C1COc2cc3ncnc(Nc4ccc(F)cc4)c3cc2N1CCCN1CCOCC1	–
163 nM	Cc1ccc(Nc2ncnc3cc4c(cc23)N(CCCN2CCOCC2)C(=O)CO4)cc1Cl	–
824 nM	O=C1COc2cc3ncnc(Nc4ccc(Br)cc4)c3cc2N1CCCN1CCOCC1	–
594 nM	Cc1ccc(Nc2ncnc3cc4c(cc23)N(CCCN2CCOCC2)C(=O)CO4)cc1	–
89.6 nM	O=C1COc2cc3ncnc(Nc4cccc(Br)c4)c3cc2N1CCCN1CCOCC1	–
63.1 nM	O=C1COc2cc3ncnc(Nc4cccc(Cl)c4)c3cc2N1CCCN1CCOCC1	–
519 nM	O=C1COc2cc3ncnc(Nc4ccccc4)c3cc2N1CCCN1CCOCC1	–
245 nM	O=C1COc2cc3ncnc(Nc4cccc(F)c4)c3cc2N1CCCN1CCOCC1	–
187 nM	Cc1cccc(Nc2ncnc3cc4c(cc23)N(CCCN2CCOCC2)C(=O)CO4)c1	–
53.1 nM	O=C1COc2cc3ncnc(Nc4ccc(F)c(Cl)c4)c3cc2N1CCCN1CCOCC1	IC50 (A549): 7510 nM; IC50 (NCI-H358): 13500 nM; IC50 [2]: 336 nM
354 nM	O=C1COc2cc3ncnc(Nc4ccc(Cl)cc4)c3cc2N1CCCN1CCOCC1	–
